Consider eight compounds from patent publication US8461336B2, “Boron-containing small molecules” (Anacor Pharmaceuticals, Inc., priority 2008, dated 2013).

The target in one series is T1, ROCK2 (Homo sapiens, UniProt O75116).
T1 construct: recombinant human protein (amino acids 11-552); His (N); purchased Reaction Biology Corp., Malvern, Pa; host or cells: insect cells
In words: Kinase assay ROCK2 ([gamma-33P]ATP, S6 kinase peptide substrate). As to conditions: 20 nM recombinant human ROCK2, room temperature. The class given is biochemical. On the procedure:
(§1) The kinase assays were performed at room temperature using 20 nM ROCK1 or ROCK2 enzyme and 20 uM peptide substrate, [gamma-^33P]ATP, and drug concentration were varied. The ROCK1 enzyme is recombinant human protein, Catalytic Domain (amino acids 1-535) (Reaction Biology Corp., Malvern, Pa.), GST-tagged, expressed in insect cells. MW=[…]. The ROCK2 enzyme is recombinant human protein (amino acids 11-552), N-terminal histidine-tagged, expressed in insect cells, MW=63.3 kDa (Reaction Biology Corp., Malvern, Pa.). The substrate was a peptide derived from S6 kinase peptide for both ROCK1 & 2 assays; [[…]], Mw=3630 Da (Reaction Biology Corp., Malvern, Pa.). The reaction buffer contained 20 mM HEPES-HCl, pH 7.5, 10 mM MgCl2, 1 mM EGTA, 0.02% Brij35, 0.1 mM Na3VO4, 0.02 mg/ml BSA, 2 mM DTT, and 1% DMSO. Enzyme/substrate/drug mixture were added and incubated for 20 min to ensure compound was equilibrated and bound to the enzyme. Then concentrations of ATP were added to initiate the reaction. The activity was monitored by filter plate capture of the radioactive peptide using ion exchange filtration (P81, Whatmann) and washed extensively. The reactions were monitored every 5-15 min to obtain progress curve with time course. At each time point, radioisotope signal (“P) was converted into “uM phosphate transferred to substrate”, and was plotted against time. The initial linear slope of progress curve was obtained by linear regression. The slopes (or velocity; uM/min) were then plotted against ATP concentrations for Michaelis-Menten plot, and subsequent Lineweaver-Burk plot (double-reciprocal plot) and secondary plot, using GraphPad Prism software.

Another series deals with T2, ROCK1 (Homo sapiens, UniProt Q13464).
T2 construct: Catalytic Domain (amino acids 1-535); GST; purchased Reaction Biology Corp., Malvern, Pa; host or cells: insect cells
T2 sequence (Q13464 1-535): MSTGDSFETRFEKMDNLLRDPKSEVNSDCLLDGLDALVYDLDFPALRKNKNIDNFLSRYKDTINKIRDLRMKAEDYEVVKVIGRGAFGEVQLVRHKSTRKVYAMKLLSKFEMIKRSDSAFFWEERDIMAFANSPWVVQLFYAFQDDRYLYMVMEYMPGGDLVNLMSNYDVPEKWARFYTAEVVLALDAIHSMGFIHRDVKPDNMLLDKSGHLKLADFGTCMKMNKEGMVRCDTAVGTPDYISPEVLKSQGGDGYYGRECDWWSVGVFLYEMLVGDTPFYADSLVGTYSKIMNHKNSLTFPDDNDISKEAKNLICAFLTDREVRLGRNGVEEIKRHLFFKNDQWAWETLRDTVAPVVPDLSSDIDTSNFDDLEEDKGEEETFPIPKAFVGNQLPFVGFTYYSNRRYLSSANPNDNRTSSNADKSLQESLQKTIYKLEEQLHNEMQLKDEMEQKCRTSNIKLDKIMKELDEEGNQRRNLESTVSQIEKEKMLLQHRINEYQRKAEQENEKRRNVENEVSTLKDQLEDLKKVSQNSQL
Put plainly: Kinase assay ROCK1 ([gamma-33P]ATP, S6 kinase peptide substrate). As to conditions: 20 nM recombinant human ROCK1 catalytic domain, room temperature. The class given is biochemical. On the procedure:
as §1

For a further series, the system named is TNF-α. In words: Cytokine assay, LPS-induced TNF-α in human PBMC. The class given is cell-based. The conditions noted are these: 1 μg/mL LPS, supernatant at 24 hours. The protocol: The ability of the compounds described herein to inhibit pro-inflammatory cytokines or phosphodiesterases were tested.
Frozen human peripheral blood mononucleocytes (PBMC) were thawed and centrifuged. Cryopreservation media was aspirated off of the cell pellet, and the cells were resuspended in fresh culture media (CM) comprising RPMI 1640 and 10% FBS in 96 well plates. Test article was dissolved in DMSO to form a 10 mM sample (DMSO, 100%). The 10 mM samples were diluted to 100 μM in CM (DMSO, 1%), then further diluted to 10, 1, 0.1, 0.01 μM in 200 μL of CM (n=3). […] IL-23 was assayed using a commercial ELISA kit (R&D Systems).

In the next series the target is K-ATP channel. As to conditions: example given in the text for K-ATP channel modulation; cited from earlier work.

Counter-ions that a name gives are not always drawn.

T1 sequence (O75116 11-552): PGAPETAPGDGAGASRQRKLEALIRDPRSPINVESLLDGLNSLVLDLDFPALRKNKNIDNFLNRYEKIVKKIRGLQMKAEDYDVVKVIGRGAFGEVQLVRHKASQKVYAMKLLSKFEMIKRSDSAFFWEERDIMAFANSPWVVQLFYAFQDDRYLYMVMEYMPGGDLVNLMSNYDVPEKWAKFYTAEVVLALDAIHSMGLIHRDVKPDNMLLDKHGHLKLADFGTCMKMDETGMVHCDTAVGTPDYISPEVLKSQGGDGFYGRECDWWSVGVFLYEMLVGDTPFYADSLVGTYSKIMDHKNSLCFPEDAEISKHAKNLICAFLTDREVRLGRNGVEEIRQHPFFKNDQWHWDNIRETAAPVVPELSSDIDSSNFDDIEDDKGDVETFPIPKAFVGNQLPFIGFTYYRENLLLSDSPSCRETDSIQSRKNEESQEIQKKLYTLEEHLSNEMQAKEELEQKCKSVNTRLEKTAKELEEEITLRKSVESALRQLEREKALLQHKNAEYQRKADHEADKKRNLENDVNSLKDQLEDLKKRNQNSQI

For the compound `NCc1ccc(Oc2ccc3c(c2)B(O)OC3)cc1` (as salt: chloride) [(4-(1-hydroxy-1,3-dihydrobenzo[c][1,2]oxaborol-6-yloxy)phenyl)methanaminium chloride], the melting point is more than 230 °C.

With `NCc1ccc(Oc2ccc3c(c2)B(O)OC3)cc1` [T, (4-(1-hydroxy-1,3-dihydrobenzo[c][1,2]oxaborol-6-yloxy)phenyl)methanaminium chloride], the IC50 at ROCK2 amounted to 3.1 µM; on ROCK1, 8.1 µM.

`NCc1cccc(Oc2ccc3c(c2)B(O)OC3)c1` [U, (3-(1-hydroxy-1,3-dihydrobenzo[c][1,2]oxaborol-6-yloxy)phenyl)methanaminium chloride]: the IC50 worked out at 40.2 µM at ROCK2 and 69.5 µM on ROCK1.

On to `NCc1ccc(Oc2ccc3c(c2)COB3O)cc1` [V, (4-(1-hydroxy-1,3-dihydrobenzo[c][1,2]oxaborol-5-yloxy)phenyl)methanaminium chloride], for which the values for the IC50 at ROCK2 and on ROCK1 were 10.1 µM and 25.1 µM, respectively.

`NCc1ccc(Oc2ccc3c(c2)B(O)OC3)c(F)c1` [W]: the IC50 on ROCK2 was found to be 0.86 µM; on ROCK1, 2.44 µM; with TNF-α, 0.019 µM.

Consider `NCc1ccc(Oc2ccc3c(c2)B(O)OC3)c(Cl)c1` [X], for which the results for the IC50 at ROCK2 and at ROCK1 were 2.11 µM and 4.75 µM, respectively.

For the compound `N#Cc1ccc(Oc2ccc3c(c2)COB3O)nc1OC1CCCC1` [Z, 2-Cyclopentyloxy-6-(1-hydroxy-1,3-dihydro-benzo[c][1,2]oxaborol-5-yloxy)-nicotinonitrile], the IC50 on ROCK2 is 9.09 µM; at ROCK1, 18.1 µM.

Turning to `CC1=NS(=O)(=O)c2cc(Cl)ccc2N1` [diazoxide], on K-ATP channel, the negative-log Ki (pKi) is listed as 3.8.

As a reminder, the melting point is the temperature, or range, at which the solid turns liquid. The term IC50 denotes the point on the concentration scale where inhibition reaches its midpoint. What is called pKi is the Ki on a negative log10 scale, so that one unit is a factor of ten.
